Like-named read-outs stand apart in the source and are kept apart here.
Assays:
[1] = test system: P. falciparum male gametocytes; assay: P. falciparum Dual Gamete Formation Assay (PfDGFA), male readout (exflagellation); assay type: cell-based, Plasmodium falciparum NF54; conditions: for Selectivity Ratio M: HepG2 Tox50 versus male IC50; for inhibition at 2 µM / Average inhibition male (%) / % inhibition male (individual replicates) R1 / % inhibition male (individual replicates) R3 / % inhibition male (individual replicates) R4: 24h preincubation with gametocytes; for IC50: PfDGFA, 24 h incubation with gametocytes before induction, exflagellation readout, read-out: Male IC50; for HitlevelM: number of replicates with >50% inhibition in the male readout
In short: (§1)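 Read-outs are automated image counts of exflagellation centres (brightfield, 10 frames over 1 s) and Pfs25-positive female gametes (Cy3 fluorescence).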

[2] = test system: P. falciparum female gametocytes; assay: P. falciparum Dual Gamete Formation Assay (PfDGFA), female readout (Pfs25-positive female gametes); assay type: cell-based, Plasmodium falciparum NF54; conditions: for Selectivity ratio F: HepG2 Tox50 versus female IC50; for inhibition at 2 µM / Average inhibition female (%) / % inhibition female (individual replicates) R1 / % inhibition female (individual replicates) R3 / % inhibition female (individual replicates) R4: 24h preincubation with gametocytes; for IC50: PfDGFA, 24 h incubation with gametocytes before induction, female gamete readout, read-out: Female IC50; for HitlevelF: number of replicates with >50% inhibition in the female readout
In short: as §1

HepG2 cells = assay: HepG2 cytotoxicity counter-screen; conditions: cytotoxic activity against HepG2 cells
[3] = Plasmodium falciparum, 2µM, average of replicates, read-out: Average inhibition male (%)
[4] = Plasmodium falciparum, 2µM, replicate R1, read-out: % inhibition male (individual replicates) R1
[5] = Plasmodium falciparum, 2µM, replicate R2, read-out: % inhibition male (individual replicates) R2
[6] = Plasmodium falciparum, 2µM, replicate R4, read-out: % inhibition male (individual replicates) R4
[7] = Plasmodium falciparum, 2µM, average of replicates, read-out: Average inhibition female (%)
[8] = Plasmodium falciparum, 2µM, replicate R1, read-out: % inhibition female (individual replicates) R1
[9] = Plasmodium falciparum, 2µM, replicate R2, read-out: % inhibition female (individual replicates) R2
[10] = Plasmodium falciparum, 2µM, replicate R3, read-out: % inhibition female (individual replicates) R3
[11] = Plasmodium falciparum, 2µM, replicate R4, read-out: % inhibition female (individual replicates) R4
[12] = PfDGFA at 2µM, average of replicates

| Structure (SMILES) | Selectivity Ratio M [1] | Selectivity ratio F [2] | Tox50 (HepG2 cells) | Average inhibition male (%) ([1]; 2µM, average of replicates) | % inhibition male (individual replicates) R1 ([1]; 2µM, replicate R1) | % inhibition male (individual replicates) R3 ([1]; 2µM, replicate R3) | % inhibition male (individual replicates) R4 ([1]; 2µM, replicate R4) | IC50 [1] | Average inhibition female (%) ([2]; 2µM, average of replicates) | % inhibition female (individual replicates) R1 ([2]; 2µM, replicate R1) | % inhibition female (individual replicates) R3 ([2]; 2µM, replicate R3) | % inhibition female (individual replicates) R4 ([2]; 2µM, replicate R4) | IC50 [2] | Average inhibition male (%) [1, 12] | % inhibition male (individual replicates) R1 ([1]; PfDGFA at 2µM, replicate R1) | % inhibition male (individual replicates) R3 ([1]; PfDGFA at 2µM, replicate R3) | % inhibition male (individual replicates) R4 ([1]; PfDGFA at 2µM, replicate R4) | HitlevelM ([1]; 2µM) | Average inhibition female (%) [2, 12] | % inhibition female (individual replicates) R1 ([2]; PfDGFA at 2µM, replicate R1) | other results |
| --- | --- | --- | --- | --- | --- | --- | --- | --- | --- | --- | --- | --- | --- | --- | --- | --- | --- | --- | --- | --- | --- |
| Oc1cccc(CNCCCN(Cc2ccccc2)c2ccccc2)c1 [TCMDC-137875] | 13 | 1.79 | 13.84 µM | – | – | – | – | – | – | – | – | – | – | – | – | – | – | – | – | – | inhibition at 2 µM [1, 3]: 97.7%; inhibition at 2 µM [1, 4]: 96.8%; inhibition at 2 µM [1, 5]: 93.7%; inhibition at 2 µM [1, 6]: 103%; IC50 ([1]; Plasmodium falciparum): 1060 nM; inhibition at 2 µM [2, 7]: 33.5%; inhibition at 2 µM [2, 8]: 43.5%; inhibition at 2 µM [2, 9]: 32%; inhibition at 2 µM [2, 10]: 28.3%; inhibition at 2 µM [2, 11]: 30.2%; IC50 ([2]; Plasmodium falciparum): 7740 nM |
| CC(=NNC(=S)NCCc1ccccn1)c1ccccn1 [TCMDC-137895] | 2.92 | 2.26 | 1.15 µM | 93.4% | 86.5% | 96.2% | 94.6% | 390 nM | 79.8% | 58.7% | 98.6% | 74.6% | 510 nM | – | – | – | – | – | – | – | – |
| CN(CCCNCc1cccc2ccccc12)CCCNCc1cccc2ccccc12.Cl [TCMDC-137905] | 6.46 | 4.08 | 5.94 µM | – | – | – | – | 920 nM | – | – | – | – | 1460 nM | 87.5% | 87.4% | 74.8% | 93.6% | 4 | 42.5% | 35.1% | % inhibition female (individual replicates) R3 ([2]; PfDGFA at 2µM, replicate R3): 30.8%; % inhibition female (individual replicates) R4 ([2]; PfDGFA at 2µM, replicate R4): 35.6%; HitlevelF ([2]; 2µM): 1 |
| COCCCNC(=S)NN=C(C)c1ccccn1 [TCMDC-137907] | 1.14 | 1.2 | 0.48 µM | – | – | – | – | – | – | – | – | – | – | – | – | – | – | – | – | – | inhibition at 2 µM [1, 3]: 100%; inhibition at 2 µM [1, 4]: 99.7%; inhibition at 2 µM [1, 5]: 100%; inhibition at 2 µM ([1]; Plasmodium falciparum, 2µM, replicate R3, read-out: % inhibition male (individual replicates) R3): 97.8%; inhibition at 2 µM [1, 6]: 103%; IC50 ([1]; Plasmodium falciparum): 420 nM; inhibition at 2 µM [2, 7]: 95.6%; inhibition at 2 µM [2, 8]: 95.7%; inhibition at 2 µM [2, 9]: 91.5%; inhibition at 2 µM [2, 10]: 100%; inhibition at 2 µM [2, 11]: 94.6%; IC50 ([2]; Plasmodium falciparum): 400 nM |
| CN(CCCNCc1ccc2ccccc2c1)CCCNCc1ccc2ccccc2c1.Cl [TCMDC-137908] | 8.05 | 3.92 | 4.12 µM | 96.1% | 95.1% | 92.7% | 98.2% | 510 nM | 40.6% | 36.9% | 42.1% | 30.7% | 1050 nM | – | – | – | – | – | – | – | – |
| CCOc1cc(CNCCCCCCNCc2cc(OCC)c(OCC)c3ccccc23)c2ccccc2c1OCC.CS(=O)(=O)O [TCMDC-137939] | 1.34 | 0.94 | 2.02 µM | – | – | – | – | 1510 nM | – | – | – | – | 2160 nM | 69.9% | 72.9% | 51.6% | 76.9% | 4 | 45.9% | 31.3% | % inhibition female (individual replicates) R3 ([2]; PfDGFA at 2µM, replicate R3): 12.7%; % inhibition female (individual replicates) R4 ([2]; PfDGFA at 2µM, replicate R4): 67.3%; HitlevelF ([2]; 2µM): 2 |
| COc1cc2ccccc2cc1CCNCCCCNCCc1cc2ccccc2cc1OC.CS(=O)(=O)O [TCMDC-137944] | 3.14 | 1.14 | 3.94 µM | 96.6% | 97.3% | 93.0% | 97.4% | 1260 nM | 77.7% | 77.0% | 80.9% | 77.1% | 3470 nM | – | – | – | – | – | – | – | – |
| CCCOc1ccc(CCNCCCCNCCc2ccc(OCCC)c3ccccc23)c2ccccc12.CS(=O)(=O)O [TCMDC-137952] | 3.16 | 2.17 | 2.96 µM | 93.9% | 96.8% | 100.0% | 100.7% | 940 nM | 89.4% | 87.3% | 99.5% | 93.9% | 1370 nM | – | – | – | – | – | – | – | – |
| COc1ccc2c(OC)c(CNCCCCCCNCc3ccc4cc(OC)ccc4c3OC)ccc2c1.CS(=O)(=O)O [TCMDC-137953] | 2 | 2.26 | 3.73 µM | – | – | – | – | 1870 nM | – | – | – | – | 1650 nM | 70.9% | 72.9% | 42.7% | 88.9% | 3 | 35.6% | 27.7% | % inhibition female (individual replicates) R3 ([2]; PfDGFA at 2µM, replicate R3): 6.7%; % inhibition female (individual replicates) R4 ([2]; PfDGFA at 2µM, replicate R4): 49.3%; HitlevelF ([2]; 2µM): 1 |
| COc1ccc(CCNCCCCNCCc2ccc(OC)c3ccccc23)c2ccccc12.CS(=O)(=O)O [TCMDC-137961] | 3.28 | 1.85 | 3.73 µM | 90.0% | 98.7% | 95.1% | 92.4% | 1140 nM | 83.6% | 91.7% | 93.4% | 91.7% | 2020 nM | – | – | – | – | – | – | – | – |
| CC(C)Oc1ccc2ccccc2c1CNCCCCCCNCc1c(OC(C)C)ccc2ccccc12.CS(=O)(=O)O [TCMDC-137965] | 1.91 | 1.26 | 3.22 µM | – | – | – | – | 1690 nM | – | – | – | – | 2560 nM | 73.8% | 86.0% | 74.0% | 91.3% | 3 | 48.8% | 46.4% | % inhibition female (individual replicates) R3 ([2]; PfDGFA at 2µM, replicate R3): 51.5%; % inhibition female (individual replicates) R4 ([2]; PfDGFA at 2µM, replicate R4): 48.5%; HitlevelF ([2]; 2µM): 1 |
| CCCOc1ccc2ccccc2c1CNCCCCCCNCc1c(OCCC)ccc2ccccc12.CS(=O)(=O)O [TCMDC-137966] | 1.77 | 1.2 | 3.43 µM | – | – | – | – | 1940 nM | – | – | – | – | 2860 nM | 79.0% | 79.2% | 56.4% | 86.2% | 4 | 25.2% | 28.6% | % inhibition female (individual replicates) R3 ([2]; PfDGFA at 2µM, replicate R3): 7.7%; % inhibition female (individual replicates) R4 ([2]; PfDGFA at 2µM, replicate R4): 20.1%; HitlevelF ([2]; 2µM): 0 |
